6 molecules from patent US7186534B1 (The Trustees of Columbia University in the City of New York, priority 1997, dated 2007) can be followed below.

Read-outs that look alike come from different tables or passages of the source.

Holding throughout (type): biochemical
Assay [1] has as its target T1, human 9-cis retinol dehydrogenase (9cRDH) (Homo sapiens, UniProt Q92781).
T1 sequence (Q92781 1-318): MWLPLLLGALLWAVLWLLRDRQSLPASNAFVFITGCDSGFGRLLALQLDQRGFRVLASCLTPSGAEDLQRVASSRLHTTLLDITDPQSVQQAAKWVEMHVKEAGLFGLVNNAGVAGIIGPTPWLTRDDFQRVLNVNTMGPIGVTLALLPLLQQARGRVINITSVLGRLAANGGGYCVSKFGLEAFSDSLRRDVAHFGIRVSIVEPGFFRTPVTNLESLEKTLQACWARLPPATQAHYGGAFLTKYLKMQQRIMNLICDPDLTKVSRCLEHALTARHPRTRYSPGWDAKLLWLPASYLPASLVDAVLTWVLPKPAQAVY
Nature of the assay: Inhibition of recombinant human 9cRDH activity (9-cis-retinol oxidation, CHO cell homogenate, HPLC).

In assay [2] the target is T2, mouse 9cRDH (Mus musculus, UniProt O55240).
T2 sequence (O55240 1-318): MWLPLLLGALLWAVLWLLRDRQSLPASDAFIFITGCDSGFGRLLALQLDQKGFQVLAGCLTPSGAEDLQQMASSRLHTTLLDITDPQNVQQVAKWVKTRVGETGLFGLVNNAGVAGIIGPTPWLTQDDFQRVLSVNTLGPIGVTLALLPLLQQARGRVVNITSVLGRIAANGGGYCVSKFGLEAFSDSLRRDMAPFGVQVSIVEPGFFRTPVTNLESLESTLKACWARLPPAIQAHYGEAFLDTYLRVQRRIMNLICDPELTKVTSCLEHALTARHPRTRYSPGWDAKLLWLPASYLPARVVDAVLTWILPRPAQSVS
The experiment in a line: Inhibition of recombinant mouse 9cRDH activity (9-cis-retinol oxidation, CHO cell homogenate, HPLC).

A further assay has as its target T3, human 9cRDH (Homo sapiens, UniProt Q92781).
T3 sequence (Q92781 1-318): T1 sequence (Q92781 1-318)
The experiment in a line: Hydroxysteroid oxidation/reduction by human 9cRDH (TLC). The conditions noted are these: 37° C., 1.5 h; TLC detection limit approximately 3 pmol/min/mg protein. The method, then:
(§1) To investigate whether human or mouse 9cRDH will catalyze oxidations or reductions of 3α-hydroxy-, 11β-hydroxy- or 17β-hydroxysteroids, these steroids were incubated at 37° C. for 1.5 h in the assay media described above for assessing oxidation/reduction of 9-cis-retinol/9-cis-retinaldehyde. The Hepes NAD^+-containing assay buffer described above was employed to assess hydroxysteroid oxidation and to assess hydroxysteroid reduction the acetate buffer containing NADH (or NADPH) assay buffer (see above) was employed. Immediately following incubation, the steroids were extracted as described above for retinoids. The final hexane extract was evaporated to near dryness and this was spotted onto a silica high performance TLC plate (Whatman Inc., Clifton, N.J.) and developed in hexane/diethyl ether/acetic acid (70:30:1, v/v) or ethyl acetate/chloroform (25:75, v/v). Steroids were visualized by charring after treatment of the TLC plates with an areosol of 10% (v/v) H2SO4 in methanol.
(§2) Biswas and Russell (32) have reported that rat liver all-trans-retinol dehydrogenase type I also uses several 3α-hydroxy- and 17β-hydroxysteroids as substrates. Chai et al. (18) also reported that hydroxysteroids are substrates for mouse liver cis-retinol dehydrogenase. Since human 9cRDH is approximately 50% identical to the rat liver enzymes and shares approximately 63% homology to mouse liver cis-retinol dehydrogenase, next investigated was whether these steroids might also be substrates for 9cRDH. To test this possibility it was determined whether human or mouse 9cRDH would catalyze oxidation of 5α-androstan-3α, 17β-diol, androsterone, testosterone or dihydrotestosterone to corresponding ketone products. Also investigated was whether human and/or mouse 9cRDH could catalyze reduction of the corresponding ketones. […] It is estimate, based on the lower limits for hydroxysteroid detection by TLC, that it would be possible to detect rates of hydroxysteroid oxidation as low as approximately 3 pmol/min/mg protein. This rate of hydroxysteroid oxidation is at least 2-orders of magnitude lower than Vmax values reported by Biswas and Russell (32) and Chai et al. (18) for oxidation of hydroxysteroids in their studies of enzymes that are able to oxidize both retinol and hydroxysteroids.

For assay [3], the target named is T2, mouse 9cRDH. Nature of the assay: Hydroxysteroid oxidation/reduction by mouse 9cRDH (TLC). The conditions noted are these: 37° C., 1.5 h; TLC detection limit approximately 3 pmol/min/mg protein. The method, then: as §1, §2
For assay [4], the target named is T4, human 9cRDH (h9cRDH) (Homo sapiens, UniProt Q92781).
T4 sequence (Q92781 1-318): T1 sequence (Q92781 1-318)
Nature of the assay: Retinaldehyde isomer reduction by recombinant human 9cRDH. The conditions noted are these: substrate 10 μM, 15 min, 150–180 μg protein/assay, NADH, pH 5.0. The method, then: (§3) Enzymatic Assays. Assays for human and mouse 9cRDH were carried out essentially as were described previously for human 9cRDH (19). For expression of mouse 9cRDH a cDNA clone obtained from a mouse liver cDNA library was employed (see below). Recombinant human or mouse 9cRDH expressed in CHO cells was incubated in an assay mixture containing 10 μM 9-cis-retinol (added in 0.02 mL ethanol) and 2 mM NAD in 10 mM Hepes, pH 8.0, containing 150 mM KCl, 1 mM EDTA, and 50 μg phosphotidyl choline for 15 min at 37° C. (final assay volume of 0.6 ml) with agitation. This assay mixture was used routinely to measure oxidation of 9-cis-retinol to 9-cis-retinaldehyde and in studies assessing oxidation of 11-cis-, 13-cis- and all-trans-retinol to their corresponding aldehydes. For some experiments, the ability of human or mouse 9cRDH to catalyze the reduction of 9-cis-, 11-cis-, 13-cis- or all-trans-retinaldehyde was assessed. To assess these reduction reactions, incubations were carried out in 100 mM sodium acetate, pH 5.0, containing 50 μg phosphotidyl choline and 2 mM NADH (or 2 mM NADPH) in a final volume of 0.6 ml for 15 min at 37° C.
(§4) Immediately following incubation of the assay, the assay mixture was denatured with an equal volume of absolute ethanol (0.6 ml), and the retinoids extracted into 2.5 ml of hexane. Following one backwash of the hexane extract with 0.5 ml of deionized water, the hexane was evaporated to dryness under a gentle stream of N2. The extracted retinoids were immediately redissolved in 120 μl of hexane and analyzed by normal phase HPLC as described below.

Assay [5] deals with T5, mouse 9cRDH (m9cRDH) (Mus musculus, UniProt O55240).
T5 sequence (O55240 1-318): T2 sequence (O55240 1-318)
The experiment in a line: Retinaldehyde isomer reduction by recombinant mouse 9cRDH. The conditions noted are these: substrate 10 μM, 15 min, 150–180 μg protein/assay, NADH, pH 5.0. The method, then:
as §3, §4

Assay [6] has as its target T4, human 9cRDH (h9cRDH). The experiment in a line: Retinol isomer oxidation by recombinant human 9cRDH (substrate and cofactor specificity). The conditions noted are these: for h9cRDH specific activity, retinol oxidation: substrate 10 μM, 15 min, 150–180 μg protein/assay, NAD+. The procedure:
Enzymatic Assay of Retinol Dehydrogenase Activity. Transfected CHO cell pellets were homogenized in PBS at 4° C. using 50 strokes of a Dounce homogenizer For assay of retinol dehydrogenase activity, aliquots of unfractionated CHO cell homogenate were incubated with 10, μM retinol (either as the all-trans, 13-cis, or 9-cis isomer added in ethanol) and either 2 mM NAD+ or 2 mM NADP+ in 10 mM Hepes containing 150 mM KCl, 1 mM EDTA, and 10, μg/ml phosphotidyl choline at pH 8.0 and 37° C. for prechosen time intervals. The final assay volume was 0.6 ml. Assays were routinely carried out in amber glass tubes that had been flushed with N2 to shield the retinoids from both light and O2 All subsequent extractions and procedures were carried out in a manner that minimized exposure of the retinoids to light and O2.
Immediately following incubation, the assay mixture was denatured with an equal volume of absolute ethanol (0.6 ml), and the retinoids were extracted into 3 ml of HPLC grade hexane. Following one backwash of the hexane extract with 0.5 ml of deionized water, the hexane was evaporated to dryness under a gentle stream of N2, and the extracted retinoids were immediately redissolved in 120 μl of hexane and analyzed by normal phase HPLC (see below).
HPLC Procedures. Stereoisomers of both retinol and retinaldehyde were separated on a 4.6×250-mm Vydac 101HS54 silica column using hexane:n-propanol:1-octanol (98.9:1.0:0.1 v/v) flowing at 1.5 ml/min as the mobile phase. The running column was preceded by a silica guard column. Retinols and retinaldehydes were detected by UV absorbance at 350 nm. Retention times for all-trans-, 13-cis-, and 9-cis-retinols were established using purified compounds obtained as described above. Retention times for all-trans-, 13-cis-, and 9-cis-retinaldehyde were determined using commercial standards (Sigma). Quantities of each retinol and retinaldehyde isomer present in extracts were determined by comparisons of the integrated areas under the HPLC peaks with a standard curve constructed relating integrated peak area with known masses of each retinoid isomer. The concentrations of each retinoid isomer were determined by UV-visible spectrophotometry using published extinction coefficients for each retinol and retinaldehyde isomer (26).
as §3, §4

Assay [7] concerns the target T5, mouse 9cRDH (m9cRDH). The experiment in a line: Retinol isomer oxidation by recombinant mouse 9cRDH. The conditions noted are these: for m9cRDH specific activity, retinol oxidation: substrate 10 μM, 15 min, 150–180 μg protein/assay, NAD+. The procedure:
as §3, §4

Where [8] appears, read: 10 μM steroid, equimolar to substrate, forward (retinol oxidation) or reverse (retinaldehyde reduction) direction.

On to `C[C@]12CCC(=O)C[C@@H]1CC[C@@H]1[C@@H]2CC[C@]2(C)[C@@H](O)CC[C@@H]12` [5α-androstan-17βol-3one], for which, in assay [1], the “inhibition of human 9cRDH activity by hydroxysteroids” value was “none of these hydroxysteroids inhibited”. For the same molecule, the “inhibition of mouse 9cRDH activity by hydroxysteroids” value at mouse 9cRDH [2] is “none of these hydroxysteroids inhibited”. Besides, the “catalysis by human 9cRDH of hydroxysteroid oxidation to ketone products (or reduction of the corresponding ketones)” value on human 9cRDH was “Neither human nor mouse 9cRDH were found to catalyze”. Also, the “catalysis by mouse 9cRDH of hydroxysteroid oxidation to ketone products (or reduction of the corresponding ketones)” value at mouse 9cRDH [3] was “Neither human nor mouse 9cRDH were found to catalyze”.
Regarding `C[C@]12CC[C@@H](O)C[C@@H]1CC[C@@H]1[C@@H]2CC[C@]2(C)[C@@H](O)CC[C@@H]12` [5α-androstane-3α, 17βdiol], the “inhibition of human 9cRDH activity by hydroxysteroids” value in assay [1] (setting [8]) is listed as “none of these hydroxysteroids inhibited”. The “inhibition of mouse 9cRDH activity by hydroxysteroids” value at mouse 9cRDH [2] (setting [8]) was “none of these hydroxysteroids inhibited”. Further, the “catalysis by human 9cRDH of hydroxysteroid oxidation to ketone products (or reduction of the corresponding ketones)” value at human 9cRDH is recorded as “Neither human nor mouse 9cRDH were found to catalyze”. Further, the “catalysis by mouse 9cRDH of hydroxysteroid oxidation to ketone products (or reduction of the corresponding ketones)” value at mouse 9cRDH [3] is reported as “Neither human nor mouse 9cRDH were found to catalyze”.
`CC1=C(/C=C/C(C)=C\C=C\C(C)=C\C=O)C(C)(C)CCC1` [9-cis-retinaldehyde]: on human 9cRDH (h9cRDH) [4], the “h9cRDH specific activity, retinaldehyde reduction” value turned out to be 268 pmol/min/mg protein. The “m9cRDH specific activity, retinaldehyde reduction” value at mouse 9cRDH (m9cRDH) [5] is given as 420 pmol/min/mg protein.
Regarding `CC1=C(/C=C/C(C)=C\C=C\C(C)=C\CO)C(C)(C)CCC1` [9-cis-retinol], the “oxidation to the corresponding retinaldehyde by transfected CHO cell homogenate (in words)” value on human 9cRDH (h9cRDH) [6] (2 mM NAD+) is given as “avidly oxidized”. On human 9cRDH (h9cRDH) [6] (in assay concentration 10 μM), the “share of the added retinol oxidized to retinaldehyde by CHO cell homogenate” value was “Over 60%”. Moreover, the “h9cRDH specific activity, retinol oxidation” value on human 9cRDH (h9cRDH) [6] is 367 pmol/min/mg protein. At mouse 9cRDH (m9cRDH) [7], the “rate of oxidation by mouse enzyme as multiple of the rate of 11-cis-retinol oxidation” value turned out to be 2 times and the “m9cRDH specific activity, retinol oxidation” value came out at 328 pmol/min/mg protein.
For the molecule `CC1=C(/C=C/C(C)=C/C=C\C(C)=C\C=O)C(C)(C)CCC1` [11-cis-retinaldehyde], the “h9cRDH specific activity, retinaldehyde reduction” value on human 9cRDH (h9cRDH) [4] worked out at 1220 pmol/min/mg protein. Also, the “m9cRDH specific activity, retinaldehyde reduction” value on mouse 9cRDH (m9cRDH) [5] was determined as 506 pmol/min/mg protein.
In the case of `CC1=C(/C=C/C(C)=C/C=C\C(C)=C\CO)C(C)(C)CCC1` [11-cis-retinol], the “h9cRDH specific activity, retinol oxidation” value on human 9cRDH (h9cRDH) [6] came out at 442 pmol/min/mg protein. Moreover, the “m9cRDH specific activity, retinol oxidation” value on mouse 9cRDH (m9cRDH) [7] came to 152 pmol/min/mg protein.
